US20240041042A1, “1-(PYRIDYL)-5-AZINYLPYRAZOLE DERIVATIVES, AND THEIR USE FOR CONTROL OF UNDESIRED PLANT GROWTH” (Bayer Aktiengesellschaft, priority 2020, published 2024)
Read-outs that look alike come from different tables or passages of the source. Blank lines part the entries; values can stand above or below the compound they belong to.

How the values were obtained:
Assay type in all cases: in vivo
Lolium rigidum (LOLRI) = experiment: Pre-emergence herbicidal action against LOLRI
Procedure, shortened: (§1)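 Seeds sown in pots and covered with soil; WP or EC formulations sprayed onto the soil surface at 600 l/ha water with 0.5% additive, at 320 g/ha or lower. Greenhouse growth for about 3 weeks, then visual scoring as % effect against untreated controls (100% = plants dead).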

[1] = system: Abutilon theophrasti (ABUTH); experiment: Post-emergence herbicidal action against ABUTH; settings: visual rating about 3 weeks after treatment vs untreated controls (100% = plants have died, 0% = like control plants)
Procedure, shortened: (§2)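 Rates were 320 g/ha or below, applied as aqueous WP/EC spray with 0.5% additive (600 l/ha) onto one-leaf-stage plants. About 3 weeks later in the greenhouse, damage was scored visually against untreated plants on a 0–100% scale, where 100% means plants died.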

[2] = system: Digitaria sanguinalis (DIGSA); experiment: Post-emergence herbicidal action against DIGSA; settings: visual rating about 3 weeks after treatment
Procedure, shortened: as §2

[3] = system: Abutilon theophrasti (ABUTH); experiment: Pre-emergence herbicidal action against ABUTH; settings: 100% = plants have died
Procedure, shortened: as §1

Oryza sativa (ORYSA) [4] = settings: crop plant compatibility
Procedure, shortened: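 One-leaf-stage crops (2–3 wk post-sowing, sandy loam, greenhouse) sprayed on green parts; 0.5% additive, 600 l/ha water. Rated by eye ~3 wk later, % vs untreated; suffixes a/b/c mark different dosages.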

[5] = system: Digitaria sanguinalis (DIGSA); experiment: Pre-emergence herbicidal action against DIGSA
Procedure, shortened: as §1

[6] = system: Pharbitis purpurea (PHBPU); experiment: Pre-emergence herbicidal action against PHBPU
Procedure, shortened: as §1

Zea mays (ZEAMX) = settings: pre-emergence, 80 g/ha, crop plant compatibility, in comparison to untreated controls
Procedure, shortened: (§3)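 Crop injury rated visually in percent against untreated plants roughly 3 weeks after treatment (0% no effect, 100% plants dead). Compounds, as WP or EC with 0.5% additive in 600 l/ha water, were applied to the covering soil right after sowing; greenhouse growth. Suffixes a, b, c denote different dosages.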

Oryza sativa (ORYSA) [7] = settings: crop plant compatibility; remark: listed apart in the source
Procedure, shortened: as §3

[8] = 80 g/ha, scored visually after about 3 weeks vs untreated controls, 0% = like control plants
[9] = Dosage column 320 g/ha (title prints 3200 g/ha), scored visually after about 3 weeks
[10] = 80 g/ha, effect in comparison to untreated controls
[11] = 80 g/ha, visual scoring after about 3 weeks vs untreated controls
[12] = 20 g/ha, effect vs untreated controls

SMILES: C[C@@H](Oc1nn(-c2ncccc2F)c(-c2ccc(F)nc2)c1Br)C(=O)O [Example I-10]
Pre-emergence action against ZEAMX in % (Zea mays (ZEAMX)): 20%
Pre-emergence action against LOLRI in % (Lolium rigidum (LOLRI); dosage 80 g/ha): 100%
Pre-emergence action against LOLRI in % (Lolium rigidum (LOLRI); dosage 320 g/ha): 100%
Post-emergence action against ABUTH in % ([1]; 320 g/ha): 80%
Post-emergence action against DIGSA in % ([2]; 80 g/ha): 90%
Post-emergence action against DIGSA in % ([2]; 320 g/ha): 90%
Pre-emergence action against ABUTH [3, 9]: 80%
Pre-emergence action against DIGSA in % [5, 11]: 100%
Pre-emergence action against DIGSA in % ([5]; dosage 320 g/ha): 100%
Pre-emergence action against PHBPU in % ([6]; dosage 80 g/ha): 90%
Pre-emergence action against PHBPU in % ([6]; dosage 320 g/ha): 90%

SMILES: COCCOC(=O)COc1nn(-c2ccccn2)c(-c2ccc(F)nc2)c1Br [Example I-96]
Pre-emergence action against ZEAMX in % (Zea mays (ZEAMX)): 0%
Pre-emergence action against ORYSA in % (Oryza sativa (ORYSA) [7]; pre-emergence, 80 g/ha, in comparison to untreated controls): 20%
Pre-emergence action against LOLRI in % (Lolium rigidum (LOLRI); dosage 80 g/ha): 90%
Pre-emergence action against LOLRI in % (Lolium rigidum (LOLRI); dosage 320 g/ha): 100%
Post-emergence action against ABUTH in % ([1]; 80 g/ha): 90%
Post-emergence action against ABUTH in % ([1]; 320 g/ha): 90%
Pre-emergence action against ABUTH [3, 9]: 80%
Pre-emergence action against PHBPU in % ([6]; dosage 80 g/ha): 90%
Pre-emergence action against PHBPU in % ([6]; dosage 320 g/ha): 90%

SMILES: O=C(O)COc1nn(-c2ncccc2F)c(-c2ccc(F)nc2)c1Br [Example I-17]
Pre-emergence action against ORYSA (Oryza sativa (ORYSA) [7]; [12]): 0%
Pre-emergence action against LOLRI in % (Lolium rigidum (LOLRI); dosage 320 g/ha): 100%
Post-emergence action against DIGSA in % ([2]; 80 g/ha): 90%
Post-emergence action against DIGSA in % ([2]; 320 g/ha): 90%
Pre-emergence action against ABUTH [3, 9]: 90%
Post-emergence action against ORYSA in % (Oryza sativa (ORYSA) [4]; [12]): 0%
Post-emergence action against ORYSA in % (Oryza sativa (ORYSA) [4]; [10]): 10%
Pre-emergence action against DIGSA in % [5, 11]: 100%
Pre-emergence action against DIGSA in % ([5]; dosage 320 g/ha): 100%
Pre-emergence action against PHBPU in % ([6]; dosage 320 g/ha): 90%

SMILES: COC(=O)[C@@H](C)Oc1nn(-c2nc(F)ccc2F)c(-c2cncc(F)c2)c1C1CC1 [Example I-171]
Pre-emergence action against LOLRI in % (Lolium rigidum (LOLRI); dosage 80 g/ha): 100%
Pre-emergence action against LOLRI in % (Lolium rigidum (LOLRI); dosage 320 g/ha): 100%
Post-emergence action against ABUTH in % ([1]; 320 g/ha): 90%
Post-emergence action against DIGSA in % ([2]; 320 g/ha): 80%
Pre-emergence action against ABUTH [3, 9]: 90%
Pre-emergence action against DIGSA in % [5, 11]: 80%
Pre-emergence action against DIGSA in % ([5]; dosage 320 g/ha): 100%
Pre-emergence action against PHBPU in % ([6]; dosage 80 g/ha): 80%
Pre-emergence action against PHBPU in % ([6]; dosage 320 g/ha): 90%

SMILES: COC(=O)COc1nn(-c2ncccc2F)c(-c2ccc(F)nc2)c1Br [Example I-07]
Pre-emergence action against LOLRI in % (Lolium rigidum (LOLRI); dosage 320 g/ha): 100%
Post-emergence action against ABUTH in % ([1]; 80 g/ha): 80%
Post-emergence action against ABUTH in % ([1]; 320 g/ha): 90%
Post-emergence action against DIGSA in % ([2]; 80 g/ha): 90%
Post-emergence action against DIGSA in % ([2]; 320 g/ha): 90%
Pre-emergence action against ABUTH [3, 9]: 90%
Post-emergence action against ORYSA in % (Oryza sativa (ORYSA) [4]; [10]): 0%
Pre-emergence action against DIGSA in % [5, 11]: 100%
Pre-emergence action against DIGSA in % ([5]; dosage 320 g/ha): 100%
Pre-emergence action against PHBPU in % ([6]; dosage 320 g/ha): 90%

Second part, led by results:

Post-emergence action against ORYSA in % (Oryza sativa (ORYSA) [4]; [10]): 20%
SMILES: O=C(O)COc1nn(-c2ncccc2F)c(-c2cncc(F)c2)c1C1CC1 [Example I-175]
Pre-emergence action against LOLRI in % (Lolium rigidum (LOLRI); dosage 80 g/ha): 100%
Pre-emergence action against LOLRI in % (Lolium rigidum (LOLRI); dosage 320 g/ha): 100%
Post-emergence action against ABUTH in % ([1]; 80 g/ha): 80%
Post-emergence action against ABUTH in % ([1]; 320 g/ha): 80%
Post-emergence action against DIGSA in % ([2]; 80 g/ha): 90%
Post-emergence action against DIGSA in % ([2]; 320 g/ha): 90%
Pre-emergence action against ABUTH [3, 8]: 80%
Pre-emergence action against ABUTH [3, 9]: 90%
Pre-emergence action against DIGSA in % [5, 11]: 100%
Pre-emergence action against DIGSA in % ([5]; dosage 320 g/ha): 100%
Pre-emergence action against PHBPU in % ([6]; dosage 80 g/ha): 80%
Pre-emergence action against PHBPU in % ([6]; dosage 320 g/ha): 90%

Post-emergence action against ORYSA in % (Oryza sativa (ORYSA) [4]; [10]): 0%
SMILES: CCOC(=O)[C@@H](C)Oc1nn(-c2nc(F)ccc2F)c(-c2cncc(F)c2)c1Cl [Example I-208]
Pre-emergence action against LOLRI in % (Lolium rigidum (LOLRI); dosage 80 g/ha): 90%
Pre-emergence action against LOLRI in % (Lolium rigidum (LOLRI); dosage 320 g/ha): 100%
Post-emergence action against ABUTH in % ([1]; 80 g/ha): 80%
Post-emergence action against ABUTH in % ([1]; 320 g/ha): 90%
Post-emergence action against DIGSA in % ([2]; 80 g/ha): 80%
Post-emergence action against DIGSA in % ([2]; 320 g/ha): 90%
Pre-emergence action against ABUTH [3, 8]: 80%
Pre-emergence action against ABUTH [3, 9]: 90%
Pre-emergence action against DIGSA in % [5, 11]: 90%
Pre-emergence action against DIGSA in % ([5]; dosage 320 g/ha): 100%
Pre-emergence action against PHBPU in % ([6]; dosage 80 g/ha): 90%
Pre-emergence action against PHBPU in % ([6]; dosage 320 g/ha): 90%

Post-emergence action against ORYSA in % (Oryza sativa (ORYSA) [4]; [10]): 10%
SMILES: COCCOC(=O)COc1nn(-c2ncccc2C)c(-c2cncc(F)c2)c1Br [Example I-212]
Pre-emergence action against LOLRI in % (Lolium rigidum (LOLRI); dosage 80 g/ha): 80%
Pre-emergence action against LOLRI in % (Lolium rigidum (LOLRI); dosage 320 g/ha): 90%
Post-emergence action against ABUTH in % ([1]; 80 g/ha): 80%
Post-emergence action against ABUTH in % ([1]; 320 g/ha): 80%
Post-emergence action against DIGSA in % ([2]; 80 g/ha): 90%
Post-emergence action against DIGSA in % ([2]; 320 g/ha): 90%
Pre-emergence action against ABUTH [3, 9]: 80%
Pre-emergence action against DIGSA in % [5, 11]: 100%
Pre-emergence action against DIGSA in % ([5]; dosage 320 g/ha): 100%
Pre-emergence action against PHBPU in % ([6]; dosage 80 g/ha): 90%
Pre-emergence action against PHBPU in % ([6]; dosage 320 g/ha): 90%

Post-emergence action against ORYSA in % (Oryza sativa (ORYSA) [4]; [10]): 0%
SMILES: COC(=O)[C@H](C)COC(=O)COc1nn(-c2ccccn2)c(-c2cncc(F)c2)c1Cl [Example I-192]
Pre-emergence action against LOLRI in % (Lolium rigidum (LOLRI); dosage 80 g/ha): 80%
Pre-emergence action against LOLRI in % (Lolium rigidum (LOLRI); dosage 320 g/ha): 100%
Post-emergence action against ABUTH in % ([1]; 320 g/ha): 80%
Post-emergence action against DIGSA in % ([2]; 80 g/ha): 80%
Post-emergence action against DIGSA in % ([2]; 320 g/ha): 80%
Pre-emergence action against ABUTH [3, 9]: 80%
Pre-emergence action against DIGSA in % [5, 11]: 90%
Pre-emergence action against DIGSA in % ([5]; dosage 320 g/ha): 100%
Pre-emergence action against PHBPU in % ([6]; dosage 80 g/ha): 90%
Pre-emergence action against PHBPU in % ([6]; dosage 320 g/ha): 90%
